# Experimental data reported in patent US9192567B2, “Method for treating eye disease or conditions affecting the posterior segment of the eye” (SANTEN SAS, priority 2006, dated 2015).
# Test: Intraocular pharmacokinetics of dexamethasone palmitate and dexamethasone following intravitreal administration
# Conditions: following IVT injection of 800 ug of prodrug
# From the text: Analytes and internal standard (roxithromycine) were extracted from the tissues using acetonitrile and separated by reverse phase liquid chromatography with a C8 column and a gradient mobile phase. […] The unweighed linear model was applied.
# All concentrations are expressed in ng/g.
smiles,measurement,value
"C[C@@H]1C[C@H]2[C@@H]3CCC4=CC(=O)C=C[C@]4(C)[C@@]3(F)[C@@H](O)C[C@]2(C)[C@@]1(O)C(=O)CO [D, dexamethasone]",time for which therapeutic levels were maintained in the target tissues,at least 2 months
